{"source": "patent US20180110721A1", "about": "“TOPICAL COSMETIC COMPOSITIONS AGAINST FREE RADICALS” (THE BOOTS COMPANY PLC, priority 2015, published 2018)", "experiment": "Lipid Peroxidation (LPO) assay", "format": "biochemical", "settings": "2% linoleic acid + 1% trolox in methanol, solar simulator UV dose 36x10^4 J/m^2; FIG. 2 column 2, negative control", "text": "Lipids are present in the cell membrane bilayer. Peroxidation of lipids compromises the integrity of skin cells and […] the ageing process resulting in premature ageing. The LPO assay is designed to determine the level of LPO damage in the skin with and without external stresses such as UV exposure; and investigating whether early defence complex can protect against the UV induced LPO damage. K-assay LPO-CC004 lipid peroxidation kit (Kamiya biomedical company)˜500 assays containing— • Reagent 1 (liquid): Enzyme reagent (ascorbic oxidase, lipoprotein lipase, stabilizer, goods buffer, surfactants) • Reagent 2A: Lyophilised chromogen reagent (MCDP for 110 ml reagent 2B) • Reagent 2B: Buffer solution (liquid) (goods buffer, hemoglobin, surfactants) • Calibrator (liquid): (50 nmol/ml cumene hyderoperoxide) • D-squames (CuDerm Corp. Dalla, USA) • Linoleic acid (L.A) • Methanol (MeOH) • Deionised water (dH2O) • 96 well flat bottom clear plate • Plate reader Unless otherwise stated all the samples were prepared weight per volume in methanol. […] Absorbance was read at 675 nm. For each well, the methanol background reading was subtracted from the absorbance reading. […] As samples were run in triplicate, the mean of each sample was then calculated. […]", "data": [{"smiles": "Cc1c(C)c2c(c(C)c1O)CCC(C)(C(=O)O)O2", "note": "(stereo not shown) [Trolox]", "values": [{"measurement": "oxidation (lipid peroxidation, absorbance at 675 nm)", "result": "very low oxidation"}]}]}
